The term fraction unbound denotes the share of the substance not bound to proteins or other matrix. A low value points to extensive binding.

Data set [1] relates to NCI-H460. Kind of data set: Antitumor activity against human NCI-H460 cells xenografted in BALB/c nude mouse assessed as tumor growth inhibition at 20 mg/kg, po administered once daily after 16 days relative to control. Format: functional. Particulars: 384 h, read-out: TGI. Background: Xenograft models place foreign cells or tissue in a host animal.
For data set [2], the system named is MGC-803. Kind of data set: Antitumor activity against human MGC803 cells xenografted in BALB/c nude mouse assessed as tumor growth inhibition at 10 mg/kg, po administered once daily for 18 days measured at post last dose relative to control. The conditions noted are these: MGC-803, po, 432 h, read-out: TGI. It is filed as functional.
The subject of data set [3] is HGC-27. In words: Antitumor activity against human HGC27 cells xenografted in BALB/c nude mouse assessed as tumor growth inhibition at […], po administered once daily for 15 days measured at post last dose relative to control. It is filed as functional. Particulars: HGC-27, po, 360 h, read-out: TGI.
Data set [4] concerns Salmonella typhimurium. In words: Mutagenicity in Salmonella typhimurium TA100 at 500 ug/plate after 72 hrs by Ames test. It is filed as toxicity, organism-based. The conditions noted are these: salmonella enterica subsp. enterica serovar typhimurium. (In general: In the Ames test, an excess of revertant colonies over the control signals mutagenicity.)
In data set [5] the test system is Salmonella typhimurium. In words: Mutagenicity in Salmonella typhimurium TA97 at 500 ug/plate after 72 hrs by Ames test. Format: toxicity, organism-based. Particulars: salmonella enterica subsp. enterica serovar typhimurium.
The nature of data set [6]: in vitro. Particulars: human, plasma.
Description: Protein binding in human plasma at 2 uM after 6 hrs by LC-MS/MS analysis

In the case of `COc1ncc(-c2cc(O[C@@H]3CCOC3)c3nc(N)nc(C)c3c2)cc1NS(=O)(=O)c1ccc(F)cc1F`, the inhibition in vivo at 20 mg/kg in data set [1] is 75.9%. The inhibition in vivo at 10 mg/kg in data set [2] was found to be 69.3%.
With `CNc1nc(C)c2cc(-c3cnc(OC)c(NS(=O)(=O)c4ccc(F)cc4F)c3)cc(OC3CCOCC3)c2n1`, the inhibition in vivo at […] in data set [3] was found to be 94.1%. For the same compound, the Activity result in data set [4] and in data set [5] was “Toxic” in each case. The compound also had a fraction unbound at 6 h, 2 µM in data set [6] of 0.0454.

(Values after ChEMBL document CHEMBL4145625 (J Med Chem, 2018).)
